Reference: ChEMBL document CHEMBL4616645, “Dysidealactams and Dysidealactones: Sesquiterpene Glycinyl-Lactams, Imides, and Lactones from a Dysidea sp. Marine Sponge Collected in Southern Australia” (J Nat Prod, 2020)
Activity calls are given as the source filed them.

Tests used:
Candida albicans = experiment: Antifungal activity against Candida albicans ATCC 10231 assessed as reduction In microbial growth up to 30 uM after 24 hrs by spectrophotometric method; type: functional, organism-based
Bacillus subtilis = experiment: Antibacterial activity against Bacillus subtilis ATCC 6051 assessed as reduction In microbial growth up to 30 uM after 24 hrs by spectrophotometric method; type: functional, organism-based
NCI-H460 = experiment: Cytotoxicity against human NCI-H460 cells assessed as reduction in cell viability up to 30 uM uM after 48 hrs by MTT assay; type: functional, cell-based
SW-620 = experiment: Cytotoxicity against human SW620 cells assessed as reduction in cell viability up to 30 uM after 48 hrs by MTT assay; type: functional, cell-based
Escherichia coli = experiment: Antibacterial activity against Escherichia coli ATCC 11775 assessed as reduction In microbial growth up to 30 uM after 24 hrs by spectrophotometric method; type: functional, organism-based

Measured: Activity

CC1(C)CCC[C@]2(C)C3=C(CC[C@@H]12)C(=O)N(CC(=O)O)C3=O
inactive: all assays above

CC1(C)CCC[C@]2(C)C3=C(CC[C@@H]12)C(=O)NC3=O
inactive: all assays above

CC1(C)CCC[C@]2(C)C3=C(CC[C@@H]12)C(=O)OC3O (stereo not given in full)
inactive: all assays above

CC1(C)CCC[C@]2(C)C3=C(CC[C@@H]12)C(=O)N(CC(=O)O)[C@@H]3O
inactive: all assays above

CCO[C@H]1C2=C(CC[C@H]3C(C)(C)CCC[C@]23C)C(=O)N1CC(=O)O
inactive: all assays above

CC1(C)CCC[C@]2(C)C3=C(CC[C@@H]12)CN(CC(=O)O)C3=O
inactive: all assays above

CC1(C)CCC[C@]2(C)C3=C(CC[C@@H]12)C(=O)N(CC(=O)O)C3
inactive: all assays above

CC1(C)CCC[C@]2(C)C3=C(CC[C@@H]12)C(O)OC3=O (stereo not given in full)
inactive: all assays above

CCO[C@@H]1C2=C(CC[C@H]3C(C)(C)CCC[C@]23C)C(=O)N1CC(=O)O
inactive: all assays above

CC1(C)CCC[C@]2(C)C3=C(CC[C@@H]12)C(=O)N(CC(=O)O)[C@H]3O
inactive: all assays above
